US20080146555A1, “Uses of Kinase Inhibitors and Compositions Thereof” (GPC Biotech, Inc, priority 2004, published 2008)
Structures can show the parent of a compound that is named as a salt. Where two headings read alike, the source gives them in different places.

Experiments:
Format in all cases: biochemical
[1] = target: T1, Abl (c-Abl) (Homo sapiens, UniProt P00519); test: Abl kinase assay
T1 construct: purchased Upstate 14-529
Protocol: • 1. 5× Reaction Buffer: 40 mM MOPS, pH 7.0, 1 mM EDTA. • 2. Enzyme Dilution Buffer (EDB): 20 mM MOPS, pH 7.0, 1 mM EDTA, 0.01% Brij-35, 5% glycerol, 0.1% β-mercaptoethanol, 1 mg/ml BSA. • 3. Abl, active: Dilute to 0.2-8 ng/μl with EDB. Use 2.5-μl per assay point. • 4. […] Use 2.5 μl per assay point for a final assay concentration of 50 μM per assay point. • 5. [γ-^32P]ATP: Stock 1 mCi/100 μl (3000 Ci/mmol, obtained from PerkinElmer, Cat. # BLU002A). Make 10 μl aliquots (100 μCi/vial).
• 1. Add 5 μl of 5× Reaction Buffer per assay. • 2. Add 2.5 μl of Abltide (50 μM). • 3. Add 2.5 μl of Abl (human), active (0.5-20 ng). • 4. Add 5 μl sterile, distilled water. • 5. Add 10 μl of the diluted [γ-^32P]ATP solution. • 6. Incubate for 10 minutes at 30° C. • 7. Transfer a 20 μl aliquot onto the center of a 2 cm×2 cm P81 paper. • 8. […] Wash the assay squares once for 5 minutes with acetone. • 10. Transfer the assay squares to vial and add 5 ml scintillation cocktail. • 11. Read in scintillation counter. Compare cpm of enzyme samples to cpm of control samples that contain background control.

[2] = target: T2, JNK3 (Homo sapiens, UniProt P53779); test: JNK3 kinase assay
T2 construct: purchased Upstate 14-501
Protocol: • 1. 10× Reaction Buffer: 500 mM Tris-HCl pH 7.5, 1 mM EGTA, 1% 2-mercaptoethanol. • 2. Enzyme Dilution Buffer (EDB): 50 mM Tris-HCl pH 7.5, 0.1 mM EGTA, 0.1% 2-mercaptoethanol, 1 mg/ml BSA, 0.03% Brij-35. • 3. JNK3/SAPK1b, active: Dilute to 4-24 ng/μl with EDB. Use 2.5 μl per assay point. • 4. ATF2 (amino acids 19-96) (Catalog #12-367): Prepare a 1.08 mg/ml stock. Use 2.5 μl per assay point for a final concentration of 3 μM per assay point. • 5. [γ-^32P]ATP: Stock 1 mCi/100 μl (3000 Ci/mmol, obtained from PerkinElmer, Cat. # BLU002A). Make 10 μl aliquots (100 μCi/vial). Before starting the assay, dilute an aliquot to 1 μCi/μl with 90 μl of 75 mM MgCl2 and 500 μM cold ATP in 20 mM MOPS, pH 7.2, 25 mM β-glycerol phosphate, 5 mM EGTA, 1 mM sodium orthovanadate, 1 mM dithiothreitol.
• 1. Add 2.5 μl of 10× Reaction Buffer per assay. • 2. Add 2.5 μl of ATF2 (amino acids 19-96). • 3. Add 2.5 μl (10-60 ng) JNK3/SAPK1b, active. • 4. Add 7.5 μl of sterile, distilled water. • 5. Add 10 μl of the diluted [γ-^32P]ATP mixture. • 6. Incubate for 10 minutes at 30° C. • 7. Transfer a 20 μl aliquot onto the center of a 2 cm×2 cm P81 paper. • 8. Wash the assay squares three times for 5 minutes with 0.75% phosphoric acid. • 9. Wash the assay squares once for 5 minutes with acetone. • 10. Transfer the assay squares to vial and add 5 ml scintillation cocktail. • 11. Read in scintillation counter. Compare cpm of enzyme samples to cpm of control samples that contain background control.

[3] = target: T3, c-Src (Homo sapiens, UniProt P12931); test: c-Src kinase assay
T3 construct: purchased Upstate 14-326
Protocol: • 1. Src Kinase Reaction Buffer (SrcRB), Catalog #20-121: 100 mM Tris-HCl, pH 7.2, 125 mM MgCl2, 25 mM MnCl2, 2 mM EGTA, 0.25 mM sodium ortovanadate, 2 mM dithiothreitol. • 2. [γ-^32P]ATP: Stock 1 mCi/100 μl (3000 Ci/mmol, obtained from DuPont-NEN). Make 10 μl aliquots (100 μCi/vial). Before starting the assay dilute an aliquot to 1 μCi/μl with 90 μl of 500 μM unlabeled ATP containing 75 mM MnCl2 20 mM MOPS, pH 7.2, 25 mM β-glycerophosphate, 5 mM EGTA, 1 mM Na3VO4, 1 mM dithiothreitol. • 3. Src Kinase Substrate Peptide (Catalog #12-140): Use a 0.6-1.5 mM stock. Rehydrate 1 mg peptide with […] distilled water or SrcRB for a 1.5 mM stock or with 998 μl for a 0.6 mM stock. • 4. Src, active: Use 20-80 Units per assay point. Dilute as required with SrcRB.
• 1. Add 10 μl of SrcRB into a microfage tube. • 2. Add 10 μl Src Kinase substrate peptide (93-375 μM/assay). • 3. Add 4-16 μl of Src, active (20-80 Units/assay). • 4. Add 10 μl of the diluted [γ-^32P]ATP. • 5. Incubate for 10 minutes at 30° C. • 6. Add 20 μl of 40% TCA and incubate for 5 minutes at room temperature. • 7. Transfer 25 μl to the center of a 2 cm×2 cm P81 paper square. • 8. Wash the assay squares five times for 5 minutes each with 0.75% phosphoric acid. • 9. Wash the assay squares once with acetone for 5 minutes. • 10. Transfer the assay squares to a scintillation vial and add 5 ml scintillation cocktail. • 11. Read in scintillation counter. Compare cpm of enzyme samples to cpm of control samples that contain no enzyme (background control).

[4] = Table II, read-out: ABL1 Inhibition (IC50)
[5] = read-out: Abl (wild-type c-Abl) IC50
[6] = kinase panel, 10 μM ATP, read-out: JNK3 IC50
[7] = read-out: MAPK10 Inhibition (IC50)
[8] = read-out: SRC Inhibition (IC50)

T3 sequence (P12931 whole entry): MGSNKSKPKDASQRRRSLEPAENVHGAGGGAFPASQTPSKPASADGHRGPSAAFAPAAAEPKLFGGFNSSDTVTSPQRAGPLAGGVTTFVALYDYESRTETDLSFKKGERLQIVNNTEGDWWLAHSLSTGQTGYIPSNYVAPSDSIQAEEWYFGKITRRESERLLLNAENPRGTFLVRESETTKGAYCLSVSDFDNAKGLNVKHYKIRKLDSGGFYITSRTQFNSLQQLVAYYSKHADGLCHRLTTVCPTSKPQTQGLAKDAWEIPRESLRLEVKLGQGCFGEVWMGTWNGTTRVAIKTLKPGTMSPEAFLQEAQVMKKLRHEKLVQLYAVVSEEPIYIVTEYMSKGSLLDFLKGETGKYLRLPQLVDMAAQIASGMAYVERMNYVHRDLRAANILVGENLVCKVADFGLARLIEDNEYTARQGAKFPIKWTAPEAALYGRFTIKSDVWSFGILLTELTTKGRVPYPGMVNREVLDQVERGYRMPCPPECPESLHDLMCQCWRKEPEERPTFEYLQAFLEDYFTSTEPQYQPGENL
T1 sequence (P00519 whole entry): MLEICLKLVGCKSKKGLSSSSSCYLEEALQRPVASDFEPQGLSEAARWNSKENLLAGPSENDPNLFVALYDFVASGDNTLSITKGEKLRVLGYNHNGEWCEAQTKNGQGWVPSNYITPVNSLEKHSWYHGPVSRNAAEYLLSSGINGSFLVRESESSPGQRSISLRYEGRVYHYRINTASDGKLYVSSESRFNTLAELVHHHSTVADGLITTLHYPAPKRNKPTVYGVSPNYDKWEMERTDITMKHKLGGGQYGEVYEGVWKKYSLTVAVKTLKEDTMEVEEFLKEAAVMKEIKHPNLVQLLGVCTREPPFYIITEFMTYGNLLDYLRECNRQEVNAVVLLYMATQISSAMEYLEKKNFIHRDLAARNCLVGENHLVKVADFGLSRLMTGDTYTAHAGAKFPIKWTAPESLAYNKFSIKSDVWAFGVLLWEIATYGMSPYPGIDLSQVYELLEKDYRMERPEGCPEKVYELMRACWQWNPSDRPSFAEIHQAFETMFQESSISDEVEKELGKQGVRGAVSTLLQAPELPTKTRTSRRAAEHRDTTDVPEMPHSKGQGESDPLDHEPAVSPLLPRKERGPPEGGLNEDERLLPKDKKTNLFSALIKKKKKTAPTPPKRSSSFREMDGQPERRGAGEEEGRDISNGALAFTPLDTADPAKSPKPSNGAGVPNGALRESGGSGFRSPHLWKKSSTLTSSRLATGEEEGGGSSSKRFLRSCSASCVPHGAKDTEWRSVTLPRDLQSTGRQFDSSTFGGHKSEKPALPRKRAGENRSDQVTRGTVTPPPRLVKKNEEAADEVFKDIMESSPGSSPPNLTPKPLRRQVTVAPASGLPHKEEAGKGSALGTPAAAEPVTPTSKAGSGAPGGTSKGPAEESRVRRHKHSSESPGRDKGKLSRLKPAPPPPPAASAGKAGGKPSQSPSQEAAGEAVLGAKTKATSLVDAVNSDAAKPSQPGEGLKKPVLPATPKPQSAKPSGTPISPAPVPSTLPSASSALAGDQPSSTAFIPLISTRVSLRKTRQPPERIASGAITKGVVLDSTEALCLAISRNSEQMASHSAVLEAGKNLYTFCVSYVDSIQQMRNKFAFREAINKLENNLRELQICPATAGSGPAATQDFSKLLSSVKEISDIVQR
T2 sequence (P53779 39-464): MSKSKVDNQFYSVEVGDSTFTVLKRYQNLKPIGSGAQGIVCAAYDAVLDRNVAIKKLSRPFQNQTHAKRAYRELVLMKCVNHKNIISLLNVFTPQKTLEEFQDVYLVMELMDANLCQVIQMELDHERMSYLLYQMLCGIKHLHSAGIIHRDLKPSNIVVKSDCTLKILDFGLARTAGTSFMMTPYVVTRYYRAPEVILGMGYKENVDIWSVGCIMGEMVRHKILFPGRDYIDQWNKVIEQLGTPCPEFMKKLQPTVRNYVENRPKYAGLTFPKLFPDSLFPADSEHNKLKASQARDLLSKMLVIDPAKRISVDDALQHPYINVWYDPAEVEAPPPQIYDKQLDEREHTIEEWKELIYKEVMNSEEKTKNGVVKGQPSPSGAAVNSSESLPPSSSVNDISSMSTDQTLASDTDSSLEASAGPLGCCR

## CC(C)N1CCN(C(=O)COc2ccc(-c3n[nH]c4c3C(=O)c3c(NC(=O)NN5CCOCC5)cccc3-4)cc2)CC1 [Compound A37]
[1]; Table AA, read-out: Abl IC50
  IC50: 35 nM
[1]; [4]
  IC50: < 50 nM
[1]; [5]
  IC50: < 50 nM
[2]; [6]
  IC50: 10 to 100 nM
[2]; [7]
  IC50: < 50 nM
[3]; [8]
  IC50: < 50 nM

## COCCN1CCN(Cc2ccc(-c3n[nH]c4c3C(=O)c3c(NC(=O)NN5CCOCC5)cccc3-4)cc2)CC1 [Compound B16, N-[3-(4-{[4-(2-methoxyethyl)piperazinyl]methyl}phenyl)-4-oxoindeno[2,3-d]pyrazol-5-yl](morpholin-4-ylamino)carboxamide dihydrochloride]
[1]; Table AA, read-out: Abl IC50
  IC50: 52 nM
[1]; [4]
  IC50: < 100 nM
[1]; [5]
  IC50: < 100 nM
[2]; [6]
  IC50: < 100 nM
[2]; [7]
  IC50: < 50 nM
[3]; kinase panel, 10 μM ATP, read-out: c-Src IC50
  IC50: < 100 nM
[3]; [8]
  IC50: < 50 nM
